Source: PubChem BioAssay (NCI)
Where “and” joins values, the source holds several entries; their conditions need not be identical. Equal entries are not always repeated.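 Exposure lasted 48 hours, with cells grown in 96-well plates and compounds tested at five concentrations. GI50 marks 50% less growth. TGI marks complete inhibition of growth.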

Assays:
Assay in all cases: inhibition of tumour cell growth, NCI panel, 48 h
NCI-H460 lung = test system: NCI-H460 lung
NCI/ADR-RES ovarian = test system: NCI/ADR-RES ovarian
COLO 205 colon = test system: COLO 205 colon
HCC-2998 colon = test system: HCC-2998 colon
IGROV1 ovarian = test system: IGROV1 ovarian
SN12C renal = test system: SN12C renal
A498 renal = test system: A498 renal
NCI-H226 lung = test system: NCI-H226 lung
HL-60(TB) leukemia = test system: HL-60(TB) leukemia
UACC-62 melanoma = test system: UACC-62 melanoma

## C=C1c2c(Cl)ccc(O)c2C(O)=C2C(=O)[C@]3(O)C(O)=C(C(N)=O)C(=O)[C@@H](N(C)C)[C@@H]3[C@@H](O)[C@H]12
NCI-H460 lung
  GI50: 1.17 µM
  TGI: 7.54 µM
NCI/ADR-RES ovarian
  GI50: 2.43 µM
  TGI: > 50 µM
COLO 205 colon
  GI50: 1.11 µM
  TGI: 3.02 µM
HCC-2998 colon
  GI50: 1.32 µM
  TGI: 5.61 µM
IGROV1 ovarian
  GI50: 1.03 µM
  TGI: 5.22 µM
SN12C renal
  GI50: 1.38 µM
  TGI: 12.4 µM
A498 renal
  GI50: 0.663 µM
  TGI: 4.09 µM
NCI-H226 lung
  GI50: 1.59 µM
  TGI: 8.91 µM
HL-60(TB) leukemia
  GI50: 1.22 µM
  TGI: 3.57 µM
UACC-62 melanoma
  GI50: 0.79 µM
  TGI: 2.73 µM

## OCCN1CCN(CC/C=C2\c3ccccc3Sc3ccc(Cl)cc32)CC1
NCI-H460 lung
  GI50: 1.89 µM and 2.19 µM
  TGI: 3.75 µM and 4.5 µM
NCI/ADR-RES ovarian
  GI50: 10.3 µM and 8.06 µM
  TGI: 24.8 µM and 21.8 µM
COLO 205 colon
  GI50: 1.65 µM and 1.59 µM
  TGI: 3.24 µM and 3 µM
HCC-2998 colon
  GI50: 1.99 µM and 1.68 µM
  TGI: 3.8 µM and 3.16 µM
IGROV1 ovarian
  GI50: 3.21 µM and 3.51 µM
  TGI: 12.7 µM and 11 µM
SN12C renal
  GI50: 7.12 µM and 7.01 µM
  TGI: 27.4 µM and 20.4 µM
A498 renal
  GI50: 2.14 µM and 1.84 µM
  TGI: 4.29 µM and 7.94 µM
NCI-H226 lung
  GI50: 6.93 µM
  TGI: 22.1 µM
HL-60(TB) leukemia
  GI50: 4.04 µM
  TGI: 3.71 µM and 9.92 µM
UACC-62 melanoma
  GI50: 1.73 µM and 1.77 µM
  TGI: 3.61 µM and 3.44 µM

## COc1ccc(Nc2cc(C)nc(N3CCN(c4ccnc5cc(Cl)ccc45)CC3)n2)cc1
NCI-H460 lung
  GI50: 1.92 µM
  TGI: > 100 µM
NCI/ADR-RES ovarian
  GI50: 2.48 µM
  TGI: 8.43 µM
COLO 205 colon
  GI50: 1.96 µM
  TGI: 3.96 µM
HCC-2998 colon
  GI50: 3.24 µM
  TGI: 11.6 µM
IGROV1 ovarian
  GI50: 4.39 µM
  TGI: > 100 µM
SN12C renal
  GI50: 2.8 µM
  TGI: > 100 µM
A498 renal
  GI50: 0.832 µM
  TGI: 7.26 µM
NCI-H226 lung
  GI50: 4.7 µM
  TGI: > 100 µM
HL-60(TB) leukemia
  GI50: 3.12 µM
  TGI: 12.8 µM
UACC-62 melanoma
  GI50: 1.71 µM
  TGI: 5.93 µM

## COc1cc(Cl)cc(-c2nn(-c3cccc(NC(=O)Nc4ccc(Cl)c(C(F)(F)F)c4)c3)cc2-c2ccncc2)c1
NCI-H460 lung
  GI50: 0.77 µM
  TGI: 4.08 µM
NCI/ADR-RES ovarian
  GI50: 1.77 µM
  TGI: 11.6 µM
COLO 205 colon
  GI50: 1.53 µM
  TGI: 3.11 µM
HCC-2998 colon
  GI50: 2.91 µM
  TGI: 9.02 µM
IGROV1 ovarian
  GI50: 3.2 µM
  TGI: 29.1 µM
SN12C renal
  GI50: 1.56 µM
  TGI: 8.21 µM
A498 renal
  GI50: 2.68 µM
  TGI: 14.4 µM
NCI-H226 lung
  GI50: 2.5 µM
  TGI: 14.7 µM
HL-60(TB) leukemia
  GI50: 1.68 µM
  TGI: 5.53 µM
UACC-62 melanoma
  GI50: 1.27 µM
  TGI: 3.54 µM

## CCN(CC)CCOc1ccc(C(=O)/C=C\c2ccc(Cl)cc2Cl)cc1
NCI-H460 lung
  GI50: 11.1 µM
  TGI: 26.1 µM
NCI/ADR-RES ovarian
  GI50: 9.91 µM
  TGI: 23.3 µM
COLO 205 colon
  GI50: 1.95 µM
  TGI: 5.15 µM
HCC-2998 colon
  GI50: 2.18 µM
  TGI: 4.65 µM
IGROV1 ovarian
  GI50: 4.63 µM
  TGI: 22.4 µM
SN12C renal
  GI50: 6.52 µM
  TGI: 21.9 µM
A498 renal
  GI50: 12.3 µM
  TGI: 24.7 µM
NCI-H226 lung
  GI50: 11.3 µM
  TGI: 26.6 µM
HL-60(TB) leukemia
  GI50: 2.67 µM
  TGI: 6.25 µM
UACC-62 melanoma
  GI50: 2.08 µM
  TGI: 4.71 µM

## N#Cc1cc(S(=O)(=O)Nc2nc3ccccc3s2)c(SCc2ccccc2)cc1Cl
NCI-H460 lung
  GI50: 18.4 µM
  TGI: > 100 µM
NCI/ADR-RES ovarian
  GI50: 30.6 µM
  TGI: > 100 µM
COLO 205 colon
  GI50: 26.5 µM
  TGI: 88.6 µM
HCC-2998 colon
  GI50: 17.7 µM
  TGI: 36.3 µM
IGROV1 ovarian
  GI50: 18.1 µM
  TGI: 46.6 µM
SN12C renal
  GI50: 19.2 µM
  TGI: 41.5 µM
A498 renal
  GI50: 20.3 µM
  TGI: 45.8 µM
NCI-H226 lung
  GI50: 31 µM
  TGI: 94.3 µM
HL-60(TB) leukemia
  GI50: 51.5 µM
  TGI: > 100 µM
UACC-62 melanoma
  GI50: 11.8 µM
  TGI: 29.5 µM

## CCc1nc(N)nc(N)c1-c1ccc(Cl)c(N=CN(C)C)c1
NCI-H460 lung
  TGI: > 95.2 µM
NCI/ADR-RES ovarian
  TGI: > 100 µM
COLO 205 colon
  TGI: > 100 µM
HCC-2998 colon
  TGI: > 100 µM
IGROV1 ovarian
  TGI: > 100 µM
SN12C renal
  TGI: > 100 µM
A498 renal
  TGI: > 100 µM
NCI-H226 lung
  TGI: > 100 µM
HL-60(TB) leukemia
  TGI: > 90.3 µM
UACC-62 melanoma
  TGI: > 100 µM
